# The supplement of paper PMC4862054
# Key:
# Details in all cases: incubation time: 72 h
# [1] = tested on: HCC1143; test: drug sensitivity score (DSS), CellTiter-Glo (DSS (AUC-based score)); higher = stronger drug effect (viability inhibition or cytotoxicity); extreme values may be limits of the assay
# How it was run: (§1)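 Breast cancer cell lines, seeded as 20 µl suspension, were incubated 72 h with compound in 384-well plates at 5 concentrations in 10-fold steps over a 10,000-fold range set for each compound. Fluorescence from CellTox Green was read at 485/520 nm before CellTiter-Glo luminescence, which was read after 10 min at room temperature. Every plate was normalised to 0.1 % DMSO and a positive kill control, and the drug sensitivity score was taken from the area under the fitted dose-response curve.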
# [2] = tested on: MCF-10A; test: as above
# How it was run: as §1
# [3] = tested on: MDA-MB-468; test: as above
# How it was run: as §1
# [4] = tested on: MFM-223; test: as above
# How it was run: as §1
# [5] = tested on: Hs578T; test: as above
# How it was run: as §1
# [6] = tested on: BT-474; test: as above
# How it was run: as §1
# [7] = tested on: CAL-148; test: as above
# How it was run: as §1
# [8] = tested on: HCC1599; test: as above
# How it was run: as §1
# [9] = tested on: SK-BR-3; test: as above
# How it was run: as §1
# [10] = tested on: MDA-MB-231; test: as above
# How it was run: as §1
# [11] = tested on: CAL-51; test: as above
# How it was run: as §1
# [12] = tested on: CAL-120; test: as above
# How it was run: as §1
# [13] = tested on: BT-549; test: as above
# How it was run: as §1
# [14] = tested on: MDA-MB-436; test: as above
# How it was run: as §1
# [15] = tested on: DU-4475; test: as above
# How it was run: as §1
# [16] = tested on: CAL-85-1; test: as above
# How it was run: as §1
# [17] = tested on: HCC1937; test: as above
# How it was run: as §1
# [18] = tested on: MDA-MB-453; test: as above
# How it was run: as §1
# [19] = tested on: HDQ-P1; test: as above
# How it was run: as §1
# [20] = tested on: MCF-10A; test: normalised response (% of control), CellTox Green; higher = less cell death (100 = DMSO, 0 = benzethonium chloride kill control)
# How it was run: (§2)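 Two readouts were taken after 72 h: CellTox Green fluorescence (485/520 nm) first, then CellTiter-Glo luminescence after 10 min at room temperature. Breast cancer cell lines had been seeded as 20 µl suspension into 384-well plates holding compound at 5 concentrations in 10-fold steps across a compound-specific 10,000-fold range. Each value is a normalised signal at a single concentration, with plates scaled to 0.1 % DMSO (100) and a positive kill control (0).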
# [21] = tested on: CAL-148; test: as above
# How it was run: as §2
# [22] = tested on: CAL-120; test: as above
# How it was run: as §2
# [23] = tested on: HCC1937; test: as above
# How it was run: as §2
# [24] = tested on: HDQ-P1; test: as above
# How it was run: as §2
Compound,drug sensitivity score [1],drug sensitivity score [2],drug sensitivity score [3],drug sensitivity score [4],drug sensitivity score [5],drug sensitivity score [6],drug sensitivity score [7],drug sensitivity score [8],drug sensitivity score [9],drug sensitivity score [10],drug sensitivity score [11],drug sensitivity score [12],drug sensitivity score [13],drug sensitivity score [14],drug sensitivity score [15],drug sensitivity score [16],drug sensitivity score [17],drug sensitivity score [18],drug sensitivity score [19],normalised response [20],normalised response [21],normalised response [22],normalised response [23],normalised response [24]
CN1CCC(COc2cnc(-c3cccc(Cn4nc(-c5cccc(C#N)c5)ccc4=O)c3)nc2)CC1,0,0,0,0,0,0,0,0,0,0,0,0,0,1.23,0,0,0,0,0,,,,,
CN(C)C/C=C/C(=O)Nc1cc2c(Nc3ccc(F)c(Cl)c3)ncnc2cc1O[C@H]1CCOC1 [Afatinib],0,17.4,2.66,0,0,0,3.9,0,17.8,0,0,0,0.0448,0,0,6.39,0,4.69,8.44,,,,,
COc1cc(Nc2ncc3c(n2)-c2ccc(Cl)cc2C(c2c(F)cccc2OC)=NC3)ccc1C(=O)O [Alisertib],8.44,0,23.4,10.8,5.73,8.02,7.08,0,0,4.67,12.8,5.92,12.7,11.8,9.45,0,3.43,0,3.21,,,,,
CN1CC[C@H](c2c(O)cc(O)c3c(=O)cc(-c4ccccc4Cl)oc23)[C@H](O)C1 [Alvocidib],14.9,16.2,18.1,16.1,16.2,16.9,11.4,14.7,19.8,19.1,19,14.1,17.7,18.8,17.3,16.3,13.2,12.8,16.5,,,,,
CN1CC[C@H](c2c(O)cc(O)c3c(=O)cc(-c4ccccc4Cl)oc23)[C@H](O)C1 [Alvocidib] (1000 nM),,,,,,,,,,,,,,,,,,,,18.7%,-101%,85.3%,115%,58%
Nc1nc(Cl)nc2c1ncn2[C@H]1C[C@H](O)[C@@H](CO)O1 [Cladribine],0,0,0.301,0,0,0,0,0,0,0,0,1.39,6.43,0,0,0,0,0,0,,,,,
Nc1nc(Cl)nc2c1ncn2[C@H]1C[C@H](O)[C@@H](CO)O1 [Cladribine] (100 nM),,,,,,,,,,,,,,,,,,,,,95.7%,101%,85.4%,110%
Nc1ccn([C@@H]2O[C@H](CO)[C@@H](O)[C@@H]2O)c(=O)n1 [Cytarabine],3.36,0,4.8,0,2.8,0.361,11.3,0,12.2,0,13.4,0.601,7.56,10.5,3.25,0,0,0,1.06,,,,,
Nc1ccn([C@@H]2O[C@H](CO)[C@@H](O)[C@@H]2O)c(=O)n1 [Cytarabine] (1000 nM),,,,,,,,,,,,,,,,,,,,115%,69.9%,106%,117%,107%
Cc1c2oc3c(C)ccc(C(=O)N[C@@H]4C(=O)N[C@H](C(C)C)C(=O)N5CCC[C@H]5C(=O)N(C)CC(=O)N(C)[C@@H](C(C)C)C(=O)O[C@@H]4C)c3nc-2c(C(=O)N[C@@H]2C(=O)N[C@H](C(C)C)C(=O)N3CCC[C@H]3C(=O)N(C)CC(=O)N(C)[C@@H](C(C)C)C(=O)O[C@@H]2C)c(N)c1=O [Dactinomycin],22.4,23.6,32.2,15,22.5,21,25.7,16.4,21.3,22.4,26.4,17.8,31.3,21,30.3,22.8,21.7,18.7,24.4,,,,,
Cc1c2oc3c(C)ccc(C(=O)N[C@@H]4C(=O)N[C@H](C(C)C)C(=O)N5CCC[C@H]5C(=O)N(C)CC(=O)N(C)[C@@H](C(C)C)C(=O)O[C@@H]4C)c3nc-2c(C(=O)N[C@@H]2C(=O)N[C@H](C(C)C)C(=O)N3CCC[C@H]3C(=O)N(C)CC(=O)N(C)[C@@H](C(C)C)C(=O)O[C@@H]2C)c(N)c1=O [Dactinomycin] (100 nM),,,,,,,,,,,,,,,,,,,,-3.54%,23.9%,85.4%,109%,61.8%
COc1cccc2c1C(=O)c1c(O)c3c(c(O)c1C2=O)C[C@@](O)(C(=O)CO)C[C@@H]3O[C@H]1C[C@H](N)[C@H](O)[C@H](C)O1 [Doxorubicin] (100 nM),,,,,,,,,,,,,,,,,,,,115%,81.4%,100%,134%,78.6%
Cc1ccc(F)c(NC(=O)Nc2ccc(-c3cccc4[nH]nc(N)c34)cc2)c1 [Linifanib] (100 nM),,,,,,,,,,,,,,,,,,,,107%,108%,101%,117%,112%
S=c1[nH]cnc2nc[nH]c12 [Mercaptopurine] (1000 nM),,,,,,,,,,,,,,,,,,,,108%,102%,104%,23.3%,97.3%
Clc1ccc(C(c2ccccc2Cl)C(Cl)Cl)cc1 (stereo not drawn) [Mitotane] (1000 nM),,,,,,,,,,,,,,,,,,,,96.4%,104%,98.1%,99.9%,56.1%
COc1cccc2cc(-c3nc([C@H]4CC[C@H](C(=O)O)CC4)n4ncnc(N)c34)[nH]c12 [OSI-027] (1000 nM),,,,,,,,,,,,,,,,,,,,106%,107%,97.3%,,108%
OC[C@H]1O[C@@H](n2cnc3c2N=CNC[C@H]3O)C[C@@H]1O [Pentostatin] (1000 nM),,,,,,,,,,,,,,,,,,,,108%,95.5%,103%,104%,103%
N#CC[C@H](C1CCCC1)n1cc(-c2ncnc3[nH]ccc23)cn1 [Ruxolitinib] (1000 nM),,,,,,,,,,,,,,,,,,,,,104%,96.5%,,86.3%
C=CC[C@@H]1/C=C(\C)C[C@H](C)C[C@H](OC)[C@H]2O[C@@](O)(C(=O)C(=O)N3CCCC[C@H]3C(=O)O[C@H](/C(C)=C/[C@@H]3CC[C@@H](O)[C@H](OC)C3)[C@H](C)[C@@H](O)CC1=O)[C@H](C)C[C@@H]2OC [Tacrolimus] (1000 nM),,,,,,,,,,,,,,,,,,,,108%,104%,99.5%,97.2%,
C=CCNC1=C2C[C@@H](C)C[C@H](OC)[C@H](O)[C@@H](C)/C=C(\C)[C@H](OC(N)=O)[C@@H](OC)/C=C\C=C(/C)C(=O)NC(=CC1=O)C2=O [Tanespimycin] (1000 nM),,,,,,,,,,,,,,,,,,,,31.3%,28.2%,94.5%,120%,60.1%
C[C@]1(c2nc3c(C(N)=O)cccc3[nH]2)CCCN1 [Veliparib] (1000 nM),,,,,,,,,,,,,,,,,,,,106%,105%,102%,120%,99%
CC[C@]1(O)C[C@@H]2CN(CCc3c([nH]c4ccccc34)[C@@](C(=O)OC)(c3cc4c(cc3OC)N(C)[C@H]3[C@@](O)(C(=O)OC)[C@H](OC(C)=O)[C@]5(CC)C=CCN6CC[C@]43[C@@H]65)C2)C1 [Vinblastine] (100 nM),,,,,,,,,,,,,,,,,,,,46%,75.2%,88.2%,-65.7%,96.8%
CS(=O)(=O)c1ccc(C(=O)Nc2ccc(Cl)c(-c3ccccn3)c2)c(Cl)c1 [Vismodegib] (1000 nM),,,,,,,,,,,,,,,,,,,,88.2%,104%,95%,106%,88.1%
